# pIC50: −log10 of the molar value. Where a name gives a salt, the structure may show the parent alone.
# How the values were obtained:
# [1] = biological target: T1, human JAK1 (a.a. 837-1142) (Homo sapiens, UniProt P23458); assay: In vitro JAK kinase assay (HTRF, phosphorylation of a biotinylated peptide), JAK1; assay type: biochemical; settings: Assay Conditions 1 mM ATP
# T1 construct: human JAK1 (a.a. 837-1142); His tag (N); made in house; host or cells: insect cells (baculovirus)
# Summary of the method: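 His-tagged catalytic domains (JAK1 a.a. 837-1142, JAK2 a.a. 828-1132) from insect cells phosphorylate 500 nM biotinylated peptide in 50 mM Tris pH 7.8, 100 mM NaCl, 5 mM DTT; ATP at Km (90 μM JAK1, 30 μM JAK2) or 1 mM, as indicated. 1 h at RT; EDTA stop, HTRF readout; IC50s.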
# Jak2 (a.a. 828-1132) = biological target: T2, Jak2 (a.a. 828-1132) (Homo sapiens, UniProt O60674); assay: In vitro JAK kinase assay (HTRF, phosphorylation of a biotinylated peptide), JAK2, reported as JAK2/JAK1 ratio; assay type: biochemical; settings: Assay Conditions 1 mM ATP
# T2 construct: Jak2 (a.a. 828-1132); His tag (N); made in house; host or cells: insect cells (baculovirus)
# T2 sequence (O60674 828-1132): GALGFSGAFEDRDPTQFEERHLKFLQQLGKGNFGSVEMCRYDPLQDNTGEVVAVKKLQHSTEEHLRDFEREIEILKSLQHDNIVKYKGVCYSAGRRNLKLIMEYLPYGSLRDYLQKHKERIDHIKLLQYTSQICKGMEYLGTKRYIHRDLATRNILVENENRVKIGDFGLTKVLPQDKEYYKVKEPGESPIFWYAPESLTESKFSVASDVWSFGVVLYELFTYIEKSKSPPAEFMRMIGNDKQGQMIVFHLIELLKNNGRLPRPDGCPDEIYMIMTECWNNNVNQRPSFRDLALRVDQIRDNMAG
# T1 sequence (P23458 849-1154): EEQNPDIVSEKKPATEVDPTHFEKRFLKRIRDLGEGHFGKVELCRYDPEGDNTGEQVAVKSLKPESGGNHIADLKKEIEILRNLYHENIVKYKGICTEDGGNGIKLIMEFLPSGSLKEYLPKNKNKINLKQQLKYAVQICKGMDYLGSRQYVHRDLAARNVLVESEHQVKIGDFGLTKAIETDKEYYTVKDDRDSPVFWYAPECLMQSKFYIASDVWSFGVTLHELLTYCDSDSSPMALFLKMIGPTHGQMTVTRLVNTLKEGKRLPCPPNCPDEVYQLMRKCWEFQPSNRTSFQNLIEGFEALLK
pIC50 [1],JAK2/JAK1 IC50 ratio (Jak2 (a.a. 828-1132)),Structure (SMILES)
> 7.30,6.2,"N#CC[C@@H]([C@H]1CCN(c2ncc3sccc3c2C#N)C1)n1cc(-c2ncnc3[nH]ccc23)cn1 [Example 74, 5-((3S)-3-{(1S)-2-cyano-1-[4-(7H-pyrrolo[2,3-d]pyrimidin-4-yl)-1H-pyrazol-1-yl]ethyl}pyrrolidin-1-yl)thieno[2,3-c]pyridine-4-carbonitrile]"
> 7.30,4.6,"N#CC[C@@H]([C@H]1CCN(c2nc3ccsc3cc2C#N)C1)n1cc(-c2ncnc3[nH]ccc23)cn1 [Example 75, 5-((3S)-3-{(1S)-2-cyano-1-[4-(7H-pyrrolo[2,3-d]pyrimidin-4-yl)-1H-pyrazol-1-yl]ethyl}pyrrolidin-1-yl)thieno[3,2-b]pyridine-6-carbonitrile]"
> 7.30,51.1,"N#CC[C@@H]([C@H]1CCN(c2scc(O)c2C#N)C1)n1cc(-c2ncnc3[nH]ccc23)cn1 [Example 76, 2-((3S)-3-{(1S)-2-cyano-1-[4-(7H-pyrrolo[2,3-d]pyrimidin-4-yl)-1H-pyrazol-1-yl]ethyl}pyrrolidin-1-yl)-4-hydroxythiophene-3-carbonitrile]"
> 7.30,39.1,"N#CC[C@@H]([C@H]1CCN(c2scc(Br)c2C#N)C1)n1cc(-c2ncnc3[nH]ccc23)cn1 [Example 77, 4-bromo-2-((3S)-3-{(1S)-2-cyano-1-[4-(7H-pyrrolo[2,3-d]pyrimidin-4-yl)-1H-pyrazol-1-yl]ethyl}pyrrolidin-1-yl)thiophene-3-carbonitrile]"
> 7.30,32.1,"N#CC[C@@H]([C@H]1CCN(c2scc(Cl)c2C#N)C1)n1cc(-c2ncnc3[nH]ccc23)cn1 [Example 78, 4-chloro-2-((3S)-3-{(1S)-2-cyano-1-[4-(7H-pyrrolo[2,3-d]pyrimidin-4-yl)-1H-pyrazol-1-yl]ethyl}pyrrolidin-1-yl)thiophene-3-carbonitrile]"
> 7.30,20.0,"N#CC[C@@H]([C@H]1CCN(c2scc(C#N)c2C#N)C1)n1cc(-c2ncnc3[nH]ccc23)cn1 [Example 79, 2-((3S)-3-{(1S)-2-cyano-1-[4-(7H-pyrrolo[2,3-d]pyrimidin-4-yl)-1H-pyrazol-1-yl]ethyl}pyrrolidin-1-yl)thiophene-3,4-dicarbonitrile]"
> 7.30,12.1,"N#Cc1csc(N2CC[C@H](C(CF)n3cc(-c4ncnc5[nH]ccc45)cn3)C2)c1C#N (stereo partly drawn) [Example 80, 2-((3S)-3-{2-fluoro-1-[4-(7H-pyrrolo[2,3-d]pyrimidin-4-yl)-1H-pyrazol-1-yl]ethyl}pyrrolidin-1-yl)thiophene-3,4-dicarbonitrile]"
> 7.30,6.7,"N#CC[C@@H]([C@H]1CCN(c2ncsc2C#N)C1)n1cc(-c2ncnc3[nH]ccc23)cn1 [Example 82, 4-(3-{2-cyano-1-[4-(7H-pyrrolo[2,3-d]pyrimidin-4-yl)-1H-pyrazol-1-yl]ethyl}pyrrolidin-1-yl)-1,3-thiazole-5-carbonitrile]"
> 7.30,11.5,"N#CC[C@@H]([C@H]1CCN(c2ncncc2C#N)C1)n1cc(-c2ncnc3[nH]ccc23)cn1 [Example 84, 4-((S)-3-((S)-1-(4-(7H-pyrrolo[2,3-d]pyrimidin-4-yl)-1H-pyrazol-1-yl)-2-cyanoethyl)pyrrolidin-1-yl)pyrimidine-5-carbonitrile trifluoroacetate]"
> 7.30,5.3,"FCC([C@H]1CCN(c2nc3c(cc2F)CCS3)C1)n1cc(-c2ncnc3[nH]ccc23)cn1 (stereo partly drawn) [Example 85, 4-(1-{2-fluoro-1-[(3S)-1-(5-fluoro-2,3-dihydrothieno[2,3-b]pyridin-6-yl)pyrrolidin-3-yl]ethyl}-1H-pyrazol-4-yl)-7H-pyrrolo[2,3-d]pyrimidine bis(trifluoroacetate)]"
> 7.30,13.0,"O=S1(=O)CCc2cc(F)c(N3CC[C@H](C(CF)n4cc(-c5ncnc6[nH]ccc56)cn4)C3)nc21 (stereo partly drawn) [Example 86, 4-(1-{2-fluoro-1-[(3S)-1-(5-fluoro-1,1-dioxido-2,3-dihydrothieno[2,3-b]pyridin-6-yl)pyrrolidin-3-yl]ethyl}-1H-pyrazol-4-yl)-7H-pyrrolo[2,3-d]pyrimidine tetrakis(trifluoroacetate)]"
> 7.30,8.1,"N#CC[C@@H]([C@H]1CCN(c2nc3c(cc2F)CCS3)C1)n1cc(-c2ncnc3[nH]ccc23)cn1 [Example 87, (3S)-3-[(3S)-1-(5-fluoro-2,3-dihydrothieno[2,3-b]pyridin-6-yl)pyrrolidin-3-yl]-3-[4-(7H-pyrrolo[2,3-d]pyrimidin-4-yl)-1H-pyrazol-1-yl]propanenitrile bis(trifluoroacetate)]"
> 7.30,40.0,"N#CC[C@@H]([C@H]1CCN(c2nc(Br)ccc2F)C1)n1cc(-c2ncnc3[nH]ccc23)cn1.O=C(O)C(F)(F)F.O=C(O)C(F)(F)F [Example 88, (3S)-3-[(3S)-1-(6-bromo-3-fluoropyridin-2-yl)pyrrolidin-3-yl]-3-[4-(7H-pyrrolo[2,3-d]pyrimidin-4-yl)-1H-pyrazol-1-yl]propanenitrile bis(trifluoroacetate)]"
> 7.30,3.1,"N#CC[C@@H]([C@H]1CCN(c2ccc(F)c(F)n2)C1)n1cc(-c2ncnc3[nH]ccc23)cn1.O=C(O)C(F)(F)F [Example 89, (3S)-3-[(3S)-1-(5,6-difluoropyridin-2-yl)pyrrolidin-3-yl]-3-[4-(7H-pyrrolo[2,3-d]pyrimidin-4-yl)-1H-pyrazol-1-yl]propanenitrile trifluoroacetate]"
> 7.30,4.3,"N#CC[C@@H]([C@H]1CCN(c2nc(Cl)c(CO)cc2F)C1)n1cc(-c2ncnc3[nH]ccc23)cn1 [Example 90, (3S)-3-{(3S)-1-[6-chloro-3-fluoro-5-(hydroxymethyl)pyridin-2-yl]pyrrolidin-3-yl}-3-[4-(7H-pyrrolo[2,3-d]pyrimidin-4-yl)-1H-pyrazol-1-yl]propanenitrile trifluoroacetate]"
> 7.30,6.9,"N#CC[C@@H]([C@H]1CCN(c2nc(Cl)c(N)cc2F)C1)n1cc(-c2ncnc3[nH]ccc23)cn1 [Example 91A, (S)-3-(4-(7H-pyrrolo[2,3-d]pyrimidin-4-yl)-1H-pyrazol-1-yl)-3-((S)-1-(5-amino-6-chloro-3-fluoropyridin-2-yl)pyrrolidin-3-yl)propanenitrile bis(trifluoroacetate)]"
> 7.30,7.0,"N#CC[C@@H]([C@H]1CCN(c2nc(Cl)c(F)cc2N)C1)n1cc(-c2ncnc3[nH]ccc23)cn1.O=C(O)C(F)(F)F.O=C(O)C(F)(F)F [Example 91B, (3S)-3-[(3S)-1-(3-amino-6-chloro-5-fluoropyridin-2-yl)pyrrolidin-3-yl]-3-[4-(7H-pyrrolo[2,3-d]pyrimidin-4-yl)-1H-pyrazol-1-yl]propanenitrile bis(trifluoroacetate)]"
> 7.30,5.3,"CCS(=O)(=O)c1ccc(F)c(N2CC[C@H]([C@H](CC#N)n3cc(-c4ncnc5[nH]ccc45)cn3)C2)n1 [Example 93, (3S)-3-{(3S)-1-[6-(ethylsulfonyl)-3-fluoropyridin-2-yl]pyrrolidin-3-yl}-3-[4-(7H-pyrrolo[2,3-d]pyrimidin-4-yl)-1H-pyrazol-1-yl]propanenitrile trifluoroacetate]"
> 7.30,17.9,"N#CC[C@@H]([C@H]1CCN(c2nc(Cl)ccc2F)C1)n1cc(-c2ncnc3[nH]ccc23)cn1 [Example 94, (3S)-3-[(3S)-1-(6-chloro-3-fluoropyridin-2-yl)pyrrolidin-3-yl]-3-[4-(7H-pyrrolo[2,3-d]pyrimidin-4-yl)-1H-pyrazol-1-yl]propanenitrile trifluoroacetate]"
> 7.30,16.4,"COCc1c(F)cnc(N2CC[C@H]([C@H](CC#N)n3cc(-c4ncnc5[nH]ccc45)cn3)C2)c1C#N [Example 95, 2-((3S)-3-{(1S)-2-cyano-1-[4-(7H-pyrrolo[2,3-d]pyrimidin-4-yl)-1H-pyrazol-1-yl]ethyl}pyrrolidin-1-yl)-5-fluoro-4-(methoxymethyl)nicotinonitrile bis(trifluoroacetate)]"
> 7.30,16.3,"COCc1ccnc(N2CC[C@H]([C@H](CC#N)n3cc(-c4ncnc5[nH]ccc45)cn3)C2)c1C#N [Example 96, 2-((3S)-3-{(1S)-2-cyano-1-[4-(7H-pyrrolo[2,3-d]pyrimidin-4-yl)-1H-pyrazol-1-yl]ethyl}pyrrolidin-1-yl)-4-(methoxymethyl)nicotinonitrile tris(trifluoroacetate)]"
> 7.30,>9.1,"COc1ncnc(N2CC[C@H]([C@H](CC#N)n3cc(-c4ncnc5[nH]ccc45)cn3)C2)c1C#N [Example 98, 4-((S)-3-((S)-1-(4-(7H-pyrrolo[2,3-d]pyrimidin-4-yl)-1H-pyrazol-1-yl) 2-cyanoethyl)pyrrolidin-1-yl)-6-methoxypyrimidine-5-carbonitrile trifluoroacetate]"
> 7.30,7.6,"CCCS(=O)(=O)c1ccc(F)c(N2CC[C@H]([C@H](CC#N)n3cc(-c4ncnc5[nH]ccc45)cn3)C2)n1 [Example 99, trifluoroacetate]"
> 7.30,>7.4,"Cc1ccnc(N2CC[C@H]([C@H](CC#N)n3cc(-c4ncnc5[nH]ccc45)cn3)C2)c1C#N [Example 100, 2-((S)-3-((S)-1-(4-(7H-pyrrolo[2,3-d]pyrimidin-4-yl)-1H-pyrazol-1-yl)-2-cyanoethyl)pyrrolidin-1-yl)-4-methylnicotinonitrile trifluoroacetate]"
